According to ChEMBL document CHEMBL5131545, “Targeting NOX2 via p47/phox-p22/phox Inhibition with Novel Triproline Mimetics” (ACS Med Chem Lett, 2022):
*1 amine or outer side, *2 acyl side, *3 side chain or, on linkers, in order; H or OH if unused. Where a SMILES comes first, the peptide text is derived from it. The star is where a group is joined. X1 = Clc1ccc(-c2cccc(N*)c2)cc1Cl; Suc = O=C(CCC(=O)[*:2])[*:1]; X2 = C(CC1CC1)N*

Biological target: T1, Neutrophil cytosol factor 1 (Homo sapiens, UniProt P14598)
T1 sequence (P14598 whole entry): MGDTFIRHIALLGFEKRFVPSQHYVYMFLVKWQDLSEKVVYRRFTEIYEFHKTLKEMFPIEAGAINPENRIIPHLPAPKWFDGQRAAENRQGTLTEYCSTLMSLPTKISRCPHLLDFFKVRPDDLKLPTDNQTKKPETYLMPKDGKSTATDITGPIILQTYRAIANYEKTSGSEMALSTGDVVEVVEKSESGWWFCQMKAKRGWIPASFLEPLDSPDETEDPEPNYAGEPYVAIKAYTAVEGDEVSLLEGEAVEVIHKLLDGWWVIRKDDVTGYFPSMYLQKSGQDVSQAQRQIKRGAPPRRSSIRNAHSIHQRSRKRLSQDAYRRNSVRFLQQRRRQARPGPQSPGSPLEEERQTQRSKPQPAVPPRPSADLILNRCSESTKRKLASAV
Experiment: Binding affinity to human N-terminal TEV cleavable 6His tagged p47phox (151-285 residues) assessed as dissociation […] constant by Surface plasmon resonance assay

Row | SMILES | Kd [nM]
1 | N=C(N)NCCC[C@H](NC(=O)[C@@H]1CCC[C@H]1[C@@H](O)[C@@H]1CCCN1C(=O)[C@@H]1CCCN1C(=O)CCC(=O)Nc1cccc(-c2ccc(Cl)c(Cl)c2)c1)C(=O)NCCC1CC1 | 312
2 | N=C(N)NCC1CCN(C(=O)[C@@H]2CCCN2C(=O)[C@@H]2CCCN2C(=O)[C@@H]2CCCN2C(=O)CCC(=O)Nc2cccc(-c3cnco3)c2)CC1 | 5710
3 | N=C(N)NCCC[C@H](NC(=O)[C@@H]1CCCN1C(=O)[C@@H]1CCC[C@H]1[C@@H](O)[C@@H]1CCCN1C(=O)CCC(=O)Nc1cccc(-c2ccc(Cl)c(Cl)c2)c1)C(=O)NCCC1CC1 | > 30000

The next compounds have a lower Kd than those just listed; values first:

Row | Kd [nM] | SMILES
4 | 214 | C[C@H](NC(=O)[C@@H]1CCCN1C(=O)[C@@H]1CCCN1C(=O)[C@H](CCCNC(=N)N)NC(=O)[C@@H]1CCCN1C(=O)[C@@H]1CCCN1C(=O)[C@@H]1CCCN1C(=O)[C@H](CC(N)=O)NC(=O)[C@H](CO)NC(=O)[C@@H]1CCCN1C(=O)[C@@H]1CCCN1)C(=O)O (H-PPSNPPPRPPA-OH)
5 | 43 | N=C(N)NCCC[C@H](NC(=O)[C@@H]1CCCN1C(=O)[C@@H]1CCCN1C(=O)[C@@H]1CCCN1C(=O)CCC(=O)Nc1cccc(-c2ccc(Cl)c(Cl)c2)c1)C(=O)NCCC1CC1 ({X1-Suc}-PPPR-X2)
